IC50 data for 15 compounds are collected here from BindingDB's records for doi:10.1016/j.chembiol.2007.09.006 (University of Virginia At Charlottesville, 2007).

SMILES strings stand for the structures. Where only a bound is given, the exact number is not on record here.

In this assay the target is T1, Core-binding factor subunit beta (Homo sapiens, UniProt Q13951).
T1 sequence (Q13951 whole entry): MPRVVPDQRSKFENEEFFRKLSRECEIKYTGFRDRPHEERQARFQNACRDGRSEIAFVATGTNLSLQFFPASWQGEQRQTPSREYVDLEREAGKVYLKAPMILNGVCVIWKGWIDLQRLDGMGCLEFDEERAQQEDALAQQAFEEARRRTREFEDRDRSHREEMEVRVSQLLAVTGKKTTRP
The assay can be described thus: FRET Assay. The conditions noted are these: pH 7.5; 23 °C. As to the method: Protein concentrations were determined by UV absorption at 433 nm for Cerulean-Runt and 513 nm for Venus-CBFbeta. […] Mean values of IC50 originating from two independent measurements performed in duplicate together with the standard deviations are reported.
Turning to `Nc1nc(-c2ccc(C(F)(F)F)cc2)cs1` [thiazol-2-amine, 5], the IC50 turned out to be 9 µM.
Then `COc1ccc(-c2csc(N)n2)cc1` [thiazol-2-amine, 6], with 18.5 µM; and `COc1ccc(-c2csc(N)n2)cc1OC` [thiazol-2-amine, 7], with 40.5 µM.
`Nc1nc(-c2ccc3c(c2)OCO3)cs1` [thiazol-2-amine, 8] yielded an IC50 of 9 µM.
The compound `Nc1nc(-c2cccc(Cl)c2)cs1` [thiazol-2-amine, 9] came in with an IC50 of 12 µM.
`Cc1cccc(-c2csc(N)n2)c1` [thiazol-2-amine, 10] gave a half-inhibitory concentration (IC50) of 110 µM.
Regarding `COc1cccc(-c2csc(N)n2)c1` [thiazol-2-amine, 11], the IC50 turned out to be 61 µM.
Consider `Cc1ccccc1-c1csc(N)n1` [thiazol-2-amine, 13], for which the IC50 was determined as 5 µM. This IC50 lies about 12-fold lower than the previous one.
`Nc1nc(-c2ccccc2Cl)cs1` [thiazol-2-amine, 14] returned an IC50 of 1.1 µM.
`Nc1nc(-c2ccc(Cl)cc2Cl)cs1` [thiazol-2-amine, 16] gave an IC50 of 49 µM.
As to `CCc1sc(N)nc1-c1ccc(OC)cc1` [thiazol-2-amine, 17], the IC50 is 3.2 µM.
In the case of `CCCc1sc(N)nc1-c1ccc(OC)cc1` [thiazol-2-amine, 18] it was 23.5 µM; in that of `CCc1sc(N)nc1-c1cccc(C)c1` [thiazol-2-amine, 19], 66 µM; in that of `CCc1sc(N)nc1-c1ccccc1OC` [thiazol-2-amine, 20], 17 µM.
As for `CCOc1ccc(-c2nc(N)sc2CC)cc1` [thiazol-2-amine, 21], the IC50 was over 500 µM.

The IC50 is the concentration that gives 50% inhibition.
